# Measured values taken from PubChem BioAssay AID248 (DTP/NCI, 2004).
# Values joined by “and” are separate entries in the source; they are usually repeats but may differ in a detail not shown here. Equal values may be shown once. Toxic doses and inconclusive results are not listed.
# Test system: L1210 leukemia ip in BDF1 mice, survival T/C
# Experiment: NCI In Vivo Anticancer Drug Screen. Data for tumor model L1210 Leukemia (intraperitoneal) in B6D2F1 (BDF1) mice
# Settings: endpoint: mean survival time, higher = longer survival
# Method in brief: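 Mice bearing the transplanted tumor received compound or vehicle. Survival of the treated group was divided by that of the vehicle-treated control group to give the ratio.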
compound,measurement,setting,value
NC(=O)c1cn(C2OC(CO)C(O)C2O)c2ncnc(N)c12 (centres undefined),T/C,"dose: 0.1 mg/kg/injection, schedule: Q01DX Z (ip), vehicle: carboxymethylcellulose (CMC)",123 % of control
same,T/C,"dose: 0.12 mg/kg/injection, schedule: Q01DX009 (ip), vehicle: saline",118 % of control
same,T/C,"dose: 0.16 mg/kg/injection, schedule: Q01DX009 (ip), vehicle: saline",119 % of control
same,T/C,"dose: 0.16 mg/kg/injection, schedule: Q#A X034 (ip), vehicle: carboxymethylcellulose (CMC)",116 % of control
same,T/C,"dose: 0.19 mg/kg/injection, schedule: Q01DX005 (ip), vehicle: saline",123 % of control
same,T/C,"dose: 0.19 mg/kg/injection, schedule: Q01DX009 (ip), vehicle: saline",121 % of control
same,T/C,"dose: 0.2 mg/kg/injection, schedule: Q01DX Z (ip), vehicle: carboxymethylcellulose (CMC)",121 % of control
same,T/C,"dose: 0.25 mg/kg/injection, schedule: Q01DX001 (sc), vehicle: saline",100 % of control
same,T/C,"dose: 0.32 mg/kg/injection, schedule: Q01DX017 (ip), vehicle: carboxymethylcellulose (CMC)",94 % of control
same,T/C,"dose: 0.32 mg/kg/injection, schedule: Q02DX009 (ip), vehicle: carboxymethylcellulose (CMC)",100 % of control
same,T/C,"dose: 0.32 mg/kg/injection, schedule: Q04DX005 (ip), vehicle: carboxymethylcellulose (CMC)",104 % of control
same,T/C,"dose: 0.32 mg/kg/injection, schedule: Q#A X034 (ip), vehicle: carboxymethylcellulose (CMC)",104 % of control
same,T/C,"dose: 0.37 mg/kg/injection, schedule: Q01DX009 (ip), vehicle: Klucel (hydroxypropylcellulose) (HPC)",107 % of control
same,T/C,"dose: 0.39 mg/kg/injection, schedule: Q01DX009 (ip), vehicle: saline",108 % of control
same,T/C,"dose: 0.5 mg/kg/injection, schedule: Q01DX001 (sc), vehicle: saline",98 % of control
same,T/C,"dose: 0.5 mg/kg/injection, schedule: Q01DX005 (ip), vehicle: saline",157 % of control
same,T/C,"dose: 0.5 mg/kg/injection, schedule: Q01DX010 (oral), vehicle: saline",97 % of control
same,T/C,"dose: 0.5 mg/kg/injection, schedule: Q## X003 (ip), vehicle: saline",114 % of control
same,T/C,"dose: 0.62 mg/kg/injection, schedule: Q01DX001 (ip), vehicle: carboxymethylcellulose (CMC)",94 % of control
same,T/C,"dose: 0.62 mg/kg/injection, schedule: Q01DX017 (ip), vehicle: carboxymethylcellulose (CMC)",105 % of control
same,T/C,"dose: 0.62 mg/kg/injection, schedule: Q02DX009 (ip), vehicle: carboxymethylcellulose (CMC)",101 % of control
same,T/C,"dose: 0.62 mg/kg/injection, schedule: Q04DX005 (ip), vehicle: carboxymethylcellulose (CMC)",113 % of control
same,T/C,"dose: 0.62 mg/kg/injection, schedule: Q08DX003 (ip), vehicle: carboxymethylcellulose (CMC)",105 % of control
same,T/C,"dose: 0.62 mg/kg/injection, schedule: Q#A X034 (ip), vehicle: carboxymethylcellulose (CMC)",101 % of control
same,T/C,"dose: 0.65 mg/kg/injection, schedule: Q01DX001 (ip), vehicle: water",122 % of control
same,T/C,"dose: 0.75 mg/kg/injection, schedule: Q01DX009 (ip), vehicle: saline",112 % of control and 117 % of control
same,T/C,"dose: 0.78 mg/kg/injection, schedule: Q01DX009 (ip), vehicle: saline",108 % of control and 123 % of control
same,T/C,"dose: 0.8 mg/kg/injection, schedule: Q01DX Z (ip), vehicle: water",123 % of control
same,T/C,"dose: 1.0 mg/kg/injection, schedule: Q01DX001 (sc), vehicle: saline",102 % of control and 104 % of control
same,T/C,"dose: 1.0 mg/kg/injection, schedule: Q01DX005 (ip), vehicle: saline",165 % of control
same,T/C,"dose: 1.0 mg/kg/injection, schedule: Q01DX006 (iv), vehicle: saline",111 % of control
same,T/C,"dose: 1.0 mg/kg/injection, schedule: Q01DX010 (oral), vehicle: saline",103 % of control
same,T/C,"dose: 1.0 mg/kg/injection, schedule: Q01DX Z (im), vehicle: saline",109 % of control
same,T/C,"dose: 1.0 mg/kg/injection, schedule: Q01DX Z (ip), vehicle: carboxymethylcellulose (CMC)",120 % of control
same,T/C,"dose: 1.0 mg/kg/injection, schedule: Q03DX005 (ip), vehicle: other",162 % of control
same,T/C,"dose: 1.0 mg/kg/injection, schedule: Q## X008 (ip), vehicle: saline",150 % of control
same,T/C,"dose: 1.25 mg/kg/injection, schedule: Q01DX001 (ip), vehicle: carboxymethylcellulose (CMC)",119 % of control
same,T/C,"dose: 1.25 mg/kg/injection, schedule: Q01DX017 (ip), vehicle: carboxymethylcellulose (CMC)",89 % of control
same,T/C,"dose: 1.25 mg/kg/injection, schedule: Q02DX009 (ip), vehicle: carboxymethylcellulose (CMC)",103 % of control
same,T/C,"dose: 1.25 mg/kg/injection, schedule: Q04DX005 (ip), vehicle: carboxymethylcellulose (CMC)",110 % of control
same,T/C,"dose: 1.25 mg/kg/injection, schedule: Q08DX003 (ip), vehicle: carboxymethylcellulose (CMC)",106 % of control
same,T/C,"dose: 1.5 mg/kg/injection, schedule: Q01DX009 (ip), vehicle: Klucel (hydroxypropylcellulose) (HPC)",98 % of control
same,T/C,"dose: 1.5 mg/kg/injection, schedule: Q01DX009 (ip), vehicle: saline with Tween-80",114 % of control and 118 % of control
same,T/C,"dose: 1.5 mg/kg/injection, schedule: Q01DX009 (ip), vehicle: saline",112 % of control
same,T/C,"dose: 1.5 mg/kg/injection, schedule: Q01DX Z (ip), vehicle: carboxymethylcellulose (CMC)",108 % of control
same,T/C,"dose: 1.5 mg/kg/injection, schedule: Q01DX Z (ip), vehicle: water",101 % of control
same,T/C,"dose: 1.56 mg/kg/injection, schedule: Q01DX005 (ip), vehicle: saline",90 % of control
same,T/C,"dose: 1.6 mg/kg/injection, schedule: Q01DX009 (ip), vehicle: saline",108 % of control
same,T/C,"dose: 1.8 mg/kg/injection, schedule: Q01DX Z (ip), vehicle: water",152 % of control
same,T/C,"dose: 2.0 mg/kg/injection, schedule: Q01DX001 (sc), vehicle: saline",103 % of control and 108 % of control
same,T/C,"dose: 2.0 mg/kg/injection, schedule: Q01DX006 (iv), vehicle: saline",115 % of control
same,T/C,"dose: 2.0 mg/kg/injection, schedule: Q01DX009 (ip), vehicle: saline",96 % of control and 100 % of control
same,T/C,"dose: 2.0 mg/kg/injection, schedule: Q01DX010 (oral), vehicle: saline",104 % of control
same,T/C,"dose: 2.0 mg/kg/injection, schedule: Q01DX Z (im), vehicle: saline",117 % of control
same,T/C,"dose: 2.0 mg/kg/injection, schedule: Q01DX Z (ip), vehicle: carboxymethylcellulose (CMC)",105 % of control
same,T/C,"dose: 2.0 mg/kg/injection, schedule: Q03DX005 (ip), vehicle: other",155 % of control
same,T/C,"dose: 2.0 mg/kg/injection, schedule: Q## X003 (ip), vehicle: saline",220 % of control
same,T/C,"dose: 2.0 mg/kg/injection, schedule: Q## X008 (ip), vehicle: saline",157 % of control
same,T/C,"dose: 2.0 mg/kg/injection, schedule: Q## X024 (ip), vehicle: saline",155 % of control
same,T/C,"dose: 2.4 mg/kg/injection, schedule: Q01DX009 (ip), vehicle: saline",96 % of control
same,T/C,"dose: 2.5 mg/kg/injection, schedule: Q01DX001 (ip), vehicle: carboxymethylcellulose (CMC)",165 % of control
same,T/C,"dose: 2.5 mg/kg/injection, schedule: Q02DX009 (ip), vehicle: carboxymethylcellulose (CMC)",90 % of control
same,T/C,"dose: 2.5 mg/kg/injection, schedule: Q04DX005 (ip), vehicle: carboxymethylcellulose (CMC)",118 % of control
same,T/C,"dose: 2.7 mg/kg/injection, schedule: Q01DX Z (ip), vehicle: water",161 % of control
same,T/C,"dose: 3.0 mg/kg/injection, schedule: Q01DX001 (ip), vehicle: water",157 % of control
same,T/C,"dose: 3.0 mg/kg/injection, schedule: Q01DX009 (ip), vehicle: saline with Tween-80",110 % of control
same,T/C,"dose: 3.0 mg/kg/injection, schedule: Q01DX Z (ip), vehicle: water",104 % of control
same,T/C,"dose: 3.0 mg/kg/injection, schedule: Q03DX005 (ip), vehicle: other",157 % of control and 170 % of control
same,T/C,"dose: 4.0 mg/kg/injection, schedule: Q01DX001 (ip), vehicle: clinical formulation",159 % of control
same,T/C,"dose: 4.0 mg/kg/injection, schedule: Q01DX001 (sc), vehicle: saline",102 % of control and 107 % of control
same,T/C,"dose: 4.0 mg/kg/injection, schedule: Q01DX006 (iv), vehicle: saline",91 % of control
same,T/C,"dose: 4.0 mg/kg/injection, schedule: Q01DX010 (oral), vehicle: saline",101 % of control
same,T/C,"dose: 4.0 mg/kg/injection, schedule: Q01DX Z (im), vehicle: saline",108 % of control
same,T/C,"dose: 4.0 mg/kg/injection, schedule: Q## X008 (ip), vehicle: saline",170 % of control
same,T/C,"dose: 4.0 mg/kg/injection, schedule: Q## X024 (ip), vehicle: saline",97 % of control
same,T/C,"dose: 5.0 mg/kg/injection, schedule: Q01DX001 (ip), vehicle: water",185 % of control
same,T/C,"dose: 5.0 mg/kg/injection, schedule: Q01DX001 (oral), vehicle: saline",102 % of control and 103 % of control
same,T/C,"dose: 5.0 mg/kg/injection, schedule: Q03DX005 (ip), vehicle: other",162 % of control
same,T/C,"dose: 5.0 mg/kg/injection, schedule: Q08DX003 (ip), vehicle: carboxymethylcellulose (CMC)",121 % of control
same,T/C,"dose: 8.0 mg/kg/injection, schedule: Q## X003 (ip), vehicle: saline",109 % of control
same,T/C,"dose: 8.0 mg/kg/injection, schedule: Q## X008 (ip), vehicle: saline",195 % of control
same,T/C,"dose: 10.0 mg/kg/injection, schedule: Q01DX001 (oral), vehicle: saline",105 % of control
same,T/C,"dose: 16.0 mg/kg/injection, schedule: Q01DX001 (ip), vehicle: saline",102 % of control
same,T/C,"dose: 20.0 mg/kg/injection, schedule: Q01DX001 (oral), vehicle: saline",112 % of control
